The text below walks through data of PMC8745330, “Aromatic Sulfonamides including a Sulfonic Acid Tail: New Membrane Impermeant Carbonic Anhydrase Inhibitors for Targeting Selectively the Cancer-Associated Isoforms” (International Journal of Molecular Sciences, 2021).

Values joined by “and” are separate entries in the source; they are usually repeats but may differ in a detail not shown here. Equal values may be shown once.

As a reminder, the melting point is the temperature of the solid-liquid transition. For orientation: Ki means a measure of affinity in units of concentration, obtained from inhibition or displacement. High values mean weaker binding, low ones tighter binding. One may read the viability as a read-out of living cells in per cent, often relative to untreated cells. Higher therefore signals less harm to the cells.

One data set addresses T1, hCA I (Homo sapiens, UniProt P00915).
T1 construct: made in house
The data set can be described thus: stopped flow CO2 hydrase assay, CA I. Format: biochemical. Particulars: mean from 3 different assays, errors ±5–10%. The method, then:
(§1) An Applied Photophysics stopped-flow instrument was used for assaying the CA catalyzed CO2 hydration activity. Phenol red (at a concentration of 0.2 mM) was used as an indicator, working at the absorbance maximum of 557 nm, with 20 mM HEPES (pH 7.5) as buffer, and 20 mM Na2SO4 (for maintaining constant the ionic strength), following the initial rates of the CA-catalyzed CO2 hydration reaction for a period of 10–100 s. The CO2 concentrations ranged from 1.7 to 17 mM for the determination of the kinetic parameters and inhibition constants. For each inhibitor, at least six traces of the initial 5–10% of the reaction were used for determining the initial velocity. The uncatalyzed rates were determined in the same manner and subtracted from the total observed rates. Stock solutions of inhibitor (0.1 mM) were prepared in distilled–deionized water, and dilutions up to 0.01 nM were done thereafter with the assay buffer. Inhibitor and enzyme solutions were preincubated together for 45 min at room temperature prior to assay in order to allow for the formation of the E–I complex. The inhibition constants were obtained by non-linear least-squares methods using PRISM 3 and the Cheng–Prusoff equation, as reported earlier, representing the mean from at least three different determinations. […] All CA isoforms were recombinant ones obtained in-house, as reported earlier.

The target in another data set is T2, hCA IV (Homo sapiens, UniProt P22748).
T2 construct: made in house
T2 sequence (P22748 19-312): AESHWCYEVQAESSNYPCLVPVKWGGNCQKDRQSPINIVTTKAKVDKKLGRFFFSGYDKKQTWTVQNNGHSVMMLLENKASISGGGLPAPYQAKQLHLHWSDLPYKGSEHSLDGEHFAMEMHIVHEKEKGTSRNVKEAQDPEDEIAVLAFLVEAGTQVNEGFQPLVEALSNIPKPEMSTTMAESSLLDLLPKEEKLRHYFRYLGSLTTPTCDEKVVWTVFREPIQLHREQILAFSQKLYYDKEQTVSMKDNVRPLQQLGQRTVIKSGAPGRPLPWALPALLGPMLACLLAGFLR
The data set is described as follows: stopped flow CO2 hydrase assay, CA IV. Format: biochemical. Particulars: mean from 3 different assays, errors ±5–10%. Here is the method: as §1

The next data set concerns the target T3, hCA IX (Homo sapiens, UniProt Q16790).
T3 construct: made in house
The data set is described as follows: stopped flow CO2 hydrase assay, CA IX. Format: biochemical. Conditions: for Selectivity index (SI) CA I/CA IX / Selectivity index (SI) CA II/CA IX: ratio between KI values; for Ki: stopped flow CO2 hydrase assay, mean from 3 different assays, errors ±5–10%. Here is the method: as §1

The next data set concerns the target T4, hCA XII (Homo sapiens, UniProt O43570).
T4 construct: made in house
The data set can be described thus: stopped flow CO2 hydrase assay, CA XII. The data set is classed as biochemical. Particulars: for Selectivity index (SI) CA I/CA XII / Selectivity index (SI) CA II/CA XII: ratio between KI values; for Ki: stopped flow CO2 hydrase assay, mean from 3 different assays, errors ±5–10%. Here is the method: as §1

In a further data set the target is T5, hCA II (Homo sapiens, UniProt P00918).
T5 construct: made in house
The data set can be described thus: stopped flow CO2 hydrase assay, CA II. The data set is classed as biochemical. Particulars: mean from 3 different assays, errors ±5–10%. The method, then: as §1

The nature of data set [1]: Caco-2 cell viability by MTS. Format: cell-based. Conditions: human; Caco-2 cells, 50 μM, 2 h of exposure, MTS; data not shown. The method, then: The colorectal adenocarcinoma cell line Caco-2 was purchased from American Tissue Type Culture Collection (Manassas, VA, USA) and cultured in Dulbecco’s modified Eagle’s medium (DMEM) (Thermo Fisher Scientific, Rodano, Milan, Italy) with 20% fetal bovine serum (FBS) (Thermo Fisher Scientific, Rodano, Milan, Italy) and 100 U/mL penicillin–streptomycin (Thermo Fisher Scientific, Rodano, Milan, Italy) in 5% CO2 at 37 °C. Cell viability was determined by MTS after 2 h of exposure to the aliphatic sulfonate CAIs at 50 µM concentration, as previously described.

T1 sequence (P00915 whole entry): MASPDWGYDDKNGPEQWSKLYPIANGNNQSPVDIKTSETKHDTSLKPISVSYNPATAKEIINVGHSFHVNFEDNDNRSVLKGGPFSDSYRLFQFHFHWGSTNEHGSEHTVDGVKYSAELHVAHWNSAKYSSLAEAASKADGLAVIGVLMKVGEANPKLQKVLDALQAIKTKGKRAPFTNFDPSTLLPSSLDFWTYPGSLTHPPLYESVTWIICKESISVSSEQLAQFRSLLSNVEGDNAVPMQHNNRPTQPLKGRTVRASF
T4 sequence (O43570 25-354): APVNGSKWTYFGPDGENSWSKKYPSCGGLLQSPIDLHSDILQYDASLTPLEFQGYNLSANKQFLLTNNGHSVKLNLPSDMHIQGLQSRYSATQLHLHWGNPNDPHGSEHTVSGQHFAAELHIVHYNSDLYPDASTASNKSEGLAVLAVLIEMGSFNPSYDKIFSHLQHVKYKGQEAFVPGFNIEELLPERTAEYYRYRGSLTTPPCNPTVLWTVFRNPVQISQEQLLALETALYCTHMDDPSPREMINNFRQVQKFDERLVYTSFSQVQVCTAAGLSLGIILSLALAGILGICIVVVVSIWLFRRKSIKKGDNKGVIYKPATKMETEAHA

In the case of `C#CCNC(=S)Nc1ccc(S(N)(=O)=O)cc1` [Compound 29], the melting point lay within 235 to 238 °C.
The compound `NS(=O)(=O)c1ccc(-c2cn(CCCS(=O)(=O)[O-])nn2)cc1.[Na+]` [Compound 30, Sodium 3-(4-(4-sulfamoylphenyl)-1H-1,2,3-triazol-1-yl)propane-1-sulfonate] registered a melting point greater than 300 °C. At hCA I, the affinity corresponds to a Ki of 83.5 nM. The same compound came in with a Ki on hCA IV of 429 nM. Further, on hCA IX, the “Selectivity index (SI) CA I/CA IX” value was determined as 2.3, the “Selectivity index (SI) CA II/CA IX” value amounted to 0.09 and the Ki was determined as 35.9 nM. Also, at hCA XII, the “Selectivity index (SI) CA I/CA XII” value is on record as 12, the “Selectivity index (SI) CA II/CA XII” value is 0.48 and the Ki is 6.7 nM. The compound also displayed a Ki on hCA II of 3.2 nM.
On to `NS(=O)(=O)c1ccc(OCc2cn(CCCS(=O)(=O)[O-])nn2)cc1.[Na+]` [Compound 31, Sodium 3-(4-((4-sulfamoylphenoxy)methyl)-1H-1,2,3-triazol-1-yl)propane-1-sulfonate], for which the melting point was 290 to 293 °C. At hCA I, this compound gave an inhibition constant (Ki) of 82.7 nM. For the same compound, the Ki at hCA IV was 38.3 nM. Also, on hCA IX, the “Selectivity index (SI) CA I/CA IX” value came to 1.8, the “Selectivity index (SI) CA II/CA IX” value was found to be 0.02 and the Ki is 44.4 nM. Further, on hCA XII, the “Selectivity index (SI) CA I/CA XII” value was 1.7, the “Selectivity index (SI) CA II/CA XII” value worked out at 0.02 and the Ki came out at 47.7 nM. On hCA II, this compound displayed a Ki of 0.9 nM.
With `NS(=O)(=O)c1ccc(NCc2cn(CCCS(=O)(=O)[O-])nn2)cc1.[Na+]` [Compound 32, Sodium 3-(4-(((4-sulfamoylphenyl)amino)methyl)-1H-1,2,3-triazol-1-yl)propane-1-sulfonate], the melting point was greater than 300 °C. Further, affinity on hCA I was put at a Ki of 460 nM. Besides, the Ki on hCA IV was found to be 43.1 nM. At hCA IX, the “Selectivity index (SI) CA I/CA IX” value was determined as 1.0, the “Selectivity index (SI) CA II/CA IX” value came to 0.01 and the Ki turned out to be 459 nM. At hCA XII, the “Selectivity index (SI) CA I/CA XII” value came out at 1.1, the “Selectivity index (SI) CA II/CA XII” value stood at 0.01 and the affinity corresponds to a Ki of 433 nM. The Ki on hCA II is 4.2 nM.
In the case of `NS(=O)(=O)c1ccc(C(=O)NCc2cn(CCCS(=O)(=O)[O-])nn2)cc1.[Na+]` [Compound 33, Sodium 3-(4-((4-sulfamoylbenzamido)methyl)-1H-1,2,3-triazol-1-yl)propane-1-sulfonate], the melting point is greater than 300 °C. The compound further came in with a Ki at hCA I of 458 nM. This compound gave a Ki at hCA IV of 56.3 nM. The same compound showed a viability at 2 h, 50 µM in data set [1] greater than 95%. On hCA IX, the “Selectivity index (SI) CA I/CA IX” value was determined as 143, the “Selectivity index (SI) CA II/CA IX” value came out at 1.3 and affinity was put at a Ki of 3.2 nM. At hCA XII, the “Selectivity index (SI) CA I/CA XII” value is 48 and 48.2; the “Selectivity index (SI) CA II/CA XII” value was 0.45; the Ki was found to be 9.5 nM. This compound gave a Ki at hCA II of 4.3 nM.
The compound `NS(=O)(=O)c1ccc(NC(=O)NCc2cn(CCCS(=O)(=O)[O-])nn2)cc1.[Na+]` [Compound 34, Sodium 3-(4-((3-(4-sulfamoylphenyl)ureido)methyl)-1H-1,2,3-triazol-1-yl)propane-1-sulfonate] registered a melting point greater than 300 °C. This compound also returned a Ki at hCA I of 622 nM. In addition, the affinity on hCA IV, expressed as Ki, was 63.5 nM. Moreover, the viability at 2 h, 50 µM in data set [1] was greater than 95%. On hCA IX, the “Selectivity index (SI) CA I/CA IX” value is recorded as 9.1, the “Selectivity index (SI) CA II/CA IX” value is given as 0.11 and the affinity corresponds to a Ki of 68.2 nM. Also, at hCA XII, the “Selectivity index (SI) CA I/CA XII” value is listed as 9.2, the “Selectivity index (SI) CA II/CA XII” value is given as 0.11 and the affinity corresponds to a Ki of 67.6 nM. For the same compound, the affinity at hCA II, expressed as Ki, was 7.4 nM.
`NS(=O)(=O)c1ccc(CNC(=O)NCc2cn(CCCS(=O)(=O)[O-])nn2)cc1.[Na+]` [Compound 35, Sodium 3-(4-((3-(4-sulfamoylbenzyl)ureido)methyl)-1H-1,2,3-triazol-1-yl)propane-1-sulfonate]: the melting point lay within 295 to 297 °C. The compound further displayed a Ki at hCA I of 807 nM. This compound returned a Ki on hCA IV of 50.2 nM. Also, on hCA IX, the “Selectivity index (SI) CA I/CA IX” value is 11, the “Selectivity index (SI) CA II/CA IX” value is 1.9 and the Ki turned out to be 71.8 nM. Besides, at hCA XII, the “Selectivity index (SI) CA I/CA XII” value is 49; the “Selectivity index (SI) CA II/CA XII” value is listed as 8.4; the affinity, expressed as Ki, was 16.4 nM. On hCA II, the Ki was 139 nM.
With `NS(=O)(=O)c1ccc(CCNC(=O)NCc2cn(CCCS(=O)(=O)[O-])nn2)cc1.[Na+]` [Compound 36, Sodium 3-(4-((3-(4-sulfamoylphenethyl)ureido)methyl)-1H-1,2,3-triazol-1-yl)propane-1-sulfonate], the melting point fell in the range of 217 to 219 °C. Further, the Ki on hCA I was 76.8 nM. Also, at hCA IV, the Ki came to 870 nM. In addition, at hCA IX, the “Selectivity index (SI) CA I/CA IX” value came out at 0.3, the “Selectivity index (SI) CA II/CA IX” value turned out to be 0.15 and the affinity corresponds to a Ki of 282 nM. Also, at hCA XII, the “Selectivity index (SI) CA I/CA XII” value was found to be 8.8, the “Selectivity index (SI) CA II/CA XII” value was determined as 4.9 and affinity was put at a Ki of 8.7 nM. This compound displayed a Ki on hCA II of 43.1 nM.
As to `NS(=O)(=O)c1ccc(NC(=S)NCc2cn(CCCS(=O)(=O)[O-])nn2)cc1.[Na+]` [Compound 37, Sodium 3-(4-((3-(4-sulfamoylphenyl)thioureido)methyl)-1H-1,2,3-triazol-1-yl)propane-1-sulfonate], the melting point was 230 to 232 °C. At hCA I, this compound came in with a Ki of 79.9 nM. At hCA IV, the Ki is 78.1 nM. At hCA IX, the “Selectivity index (SI) CA II/CA IX” value is reported as 0.42 and the affinity corresponds to a Ki of 51.2 nM. In addition, on hCA XII, the “Selectivity index (SI) CA I/CA XII” value was 8.5, the “Selectivity index (SI) CA II/CA XII” value was found to be 2.2 and the Ki came out at 9.4 nM. On hCA II, the affinity corresponds to a Ki of 21.4 nM.
As for `NS(=O)(=O)c1ccc(NC(=O)Nc2ccc(OCc3cn(CCCS(=O)(=O)[O-])nn3)cc2)cc1.[Na+]` [Compound 38, Sodium 3-(4-((4-(3-(4-sulfamoylphenyl)ureido)phenoxy)methyl)-1H-1,2,3-triazol-1-yl)propane-1-sulfonate], the melting point is greater than 300 °C. At hCA I, this compound yielded a Ki of 51.6 nM. On hCA IV, this compound registered a Ki of 36.7 nM. In data set [1], this compound gave a viability at 2 h, 50 µM greater than 95%. Further, on hCA IX, the “Selectivity index (SI) CA I/CA IX” value is 0.95, the “Selectivity index (SI) CA II/CA IX” value is on record as 0.10 and the Ki is 54.4 nM. At hCA XII, the “Selectivity index (SI) CA I/CA XII” value was found to be 1.1, the “Selectivity index (SI) CA II/CA XII” value worked out at 0.11 and the Ki was found to be 49 nM. Also, at hCA II, the affinity, expressed as Ki, was 5.4 nM.
Compound `CCC(=O)Nc1cc(S(N)(=O)=O)ccc1OCc1cn(CCCS(=O)(=O)[O-])nn1.[Na+]` [Compound 40, Sodium 3-(4-((2-propionamido-4-sulfamoylphenoxy)methyl)-1H-1,2,3-triazol-1-yl)propane-1-sulfonate] registered a melting point greater than 300 °C. The Ki at hCA I stood at 9160 nM. The compound also gave a Ki at hCA IV of 322 nM. On hCA IX, the “Selectivity index (SI) CA I/CA IX” value is reported as 167, the “Selectivity index (SI) CA II/CA IX” value stood at 0.12 and the Ki came out at 54.8 nM. Besides, on hCA XII, the “Selectivity index (SI) CA I/CA XII” value came to 194; the “Selectivity index (SI) CA II/CA XII” value stood at 0.14; the affinity, expressed as Ki, was 47.1 nM. Also, the Ki on hCA II amounted to 6.6 nM.
